From patent US7893108B2, “Antiviral methods and compositions” (priority 2004, dated 2011)
“And” between values parts separate entries of the source, which are not always exact repeats. Equal entries are not always repeated. Where two headings read alike, the source gives them in different places.

Assays:
HCMV AD169 = test: virus yield reduction assay; format: cell-based, human cytomegalovirus
Experimental: Next, we tested the effects of selected compounds and of GCV as a control in viral yield assays, which measure the titer of virus progeny produced following infection at relatively high multiplicity. In these assays, the viral titer was measured at two different times points post-infection (p.i.): at 96 hrs, when the release of virus progeny is increasing, and at 120 hrs, when the titer of virus progeny after a single cycle of replication reaches peak levels (Stinski, 1983).
(§1) For yield reduction assays, HFF cells were plated at 2×10^4 cells per well in 96-well cluster dishes, incubated overnight, and infected with HCMV AD169 at a multiplicity of infection (MOI) of 1. After virus adsorption for 2 hr at 37° C., cells were washed and incubated with 200 μl of fresh media containing test compounds at increasing drug concentration. Plates were incubated for 3 or 5 days at 37° C. and subjected to one cycle of freezing and thawing, and titers were determined by transferring 100-μl aliquots from each of the wells to a fresh 96-well monolayer culture of HFF cells followed by 1:5 serial dilution across the plate. Cultures were incubated for 7 days, cells were stained, and the numbers of plaques were determined as described above.
as §1, with “The effect of the compounds was assessed in an assay of virus yield. In this assay, cells are infected at a relatively high multiplicity of infection (about one per cell) and then drug is added. The virus produced at the different times post infection is measured. 120 hrs. is about the peak titer. This assay was conducted as follows.” for “For yield reduction assays,”, “20,000” for “2×10^4”, “an MOI” for “a multiplicity of infection (MOI)”, “0.1, 0.3, 1, 3, 10, 30 μM” for “increasing”

UL54 plus GST-UL44ΔC290 = target: T1, UL54 plus GST-UL44ΔC290 (Human cytomegalovirus, UniProt P16790); test: long-chain DNA synthesis by UL54 in the presence of UL44; format: biochemical, HCMV; conditions: for inhibition of long-chain DNA synthesis by UL54 and UL44: dose-response; for inhibition of long-chain DNA synthesis by UL54 and UL44 at one concentration: 40 μM
T1 construct: GST-UL44ΔC290 fusion protein, which contains the N-terminal 290 residues of HCMV UL44; made in house; host or cells: UL54: in vitro transcription/translation; GST-UL44ΔC290: E. coli BL21 (DE3)pLysS
T1 sequence (P16790 1-290, stated change not applied): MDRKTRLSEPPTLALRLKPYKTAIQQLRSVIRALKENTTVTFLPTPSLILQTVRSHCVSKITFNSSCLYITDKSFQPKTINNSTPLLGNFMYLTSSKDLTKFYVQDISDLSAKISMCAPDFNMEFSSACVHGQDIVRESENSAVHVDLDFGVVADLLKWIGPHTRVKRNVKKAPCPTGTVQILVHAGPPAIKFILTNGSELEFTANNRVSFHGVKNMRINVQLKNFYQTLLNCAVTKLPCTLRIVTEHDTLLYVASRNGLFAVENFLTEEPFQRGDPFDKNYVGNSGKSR
Experimental: To analyze the ability of the compounds to interfere with functional UL54-UL44 interactions, we tested their ability to inhibit long-chain DNA synthesis by UL54 in the presence of UL44 employing a poly(dA)-oligo(dT)12-18 template-primer.
DNA polymerase assays. The effects of compounds were tested in an assay that measures long-chain DNA synthesis as described in Loregian et al. (Loregian et al., 2004a), with 5 μl of in vitro-transcribed and -translated UL54 plus 800 fmol of GST-UL44ΔC290 in the absence or in the presence of various amounts of each compound.
The effect of the compounds was also tested in an assay that measures long chain (Lc) DNA synthesis as described in Loregian et al., J. Virol. […]

[1] = target: T2, full-length UL54 / UL44 interaction (Human cytomegalovirus, UniProt P16790); test: UL54-UL44 interaction ELISA; format: binding, HCMV; conditions: concentrations up to 200 μM
T2 construct: made in house; host or cells: baculovirus expression; proteins provided by H. S. Marsden (Institute of Virology, Glasgow)
T2 sequence (P16790 whole entry): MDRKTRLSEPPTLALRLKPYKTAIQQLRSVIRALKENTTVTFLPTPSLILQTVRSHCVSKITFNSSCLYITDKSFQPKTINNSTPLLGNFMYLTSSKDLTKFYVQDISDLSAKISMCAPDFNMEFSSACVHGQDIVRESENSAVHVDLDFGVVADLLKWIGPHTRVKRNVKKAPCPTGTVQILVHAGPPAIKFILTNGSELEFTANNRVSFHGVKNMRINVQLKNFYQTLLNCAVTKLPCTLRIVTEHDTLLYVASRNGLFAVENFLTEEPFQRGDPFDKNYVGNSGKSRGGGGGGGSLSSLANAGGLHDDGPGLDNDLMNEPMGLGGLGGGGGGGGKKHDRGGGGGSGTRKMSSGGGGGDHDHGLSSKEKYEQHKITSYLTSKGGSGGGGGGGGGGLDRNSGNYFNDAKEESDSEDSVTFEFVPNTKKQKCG
Experimental: In this assay, binding between purified baculovirus-expressed UL54 and UL44, which was tagged with an EEF epitope, was detected using an antibody that recognizes the epitope tag (Loregian et al., 2003).
UL54-UL44 interaction ELISA. This assay was conducted as described in (Loregian et al., 2003), testing various concentrations of each compound. After final washes, the chromogenic substrate 2,2′-azino-bis(3-ethylbenzothiazoline-6-sulphonic acid (ABTS, Pierce) in citrate phosphate buffer (pH 4.0) containing 0.01% hydrogen peroxide was added and absorbance was read at 405 nm on a Victor plate reader (Wallac).
Another assay that was used to test the effect of the compounds on the interaction of UL44 and UL54 is an ELISA interaction assay, which measures the interaction of the two full length proteins with each other. This assay was conducted as described in Loregian et al., J. Virol. 2003, 77:8336-8344, testing different concentrations (0, 3.12, 6.25, 12.5, 25, 50, 100, 200 μM) of each compound.

HCMV strain AD169 = test: plaque reduction assay; format: cell-based, human cytomegalovirus; conditions: HFF cells; 0-30 μM
Experimental: Antiviral assays. Plaque reduction assays were performed essentially as follows: HFF (human foreskin fibroblast) cells were seeded at 2×10^5 cells per well in 24-well cluster dishes. The next day, cells were infected with HCMV (strain AD169) at 80 PFU per well in DMEM plus 5% fetal bovine serum (FBS) at 37° C. Two hours post-infection, the inocula were removed, cells were washed, and media containing various drug dilutions, 5% FBS, and 0.6% methylcellulose were added. All drug dilutions were tested at least in duplicate. After incubation at 37° C. for 10-11 days, cell monolayers were stained with crystal violet and plaques were counted under light microscopy.
The effect of the compounds was assessed in a plaque reduction assay that measures the number of plaques formed in the presence of varying concentrations of a drug, as follows. HFF were seeded at 2×10^5 cells per well in 24-well cluster dishes. The next day, they were infected with HCMV AD169 at 80 PFU per well in DMEM plus 5% FBS at 37° C. Two hr post-infection, the inocula were then removed, cells were washed, and media containing selected drug dilutions (0, 0.1, 0.3, 1, 3, 10, 30 μM), and 5% FBS and 0.6% methylcellulose were added. All drug dilutions were tested at least in duplicate. After incubation at 37° C. for 10-11 days, cell monolayers were stained with crystal violet and plaques were enumerated under light microscopy.

HFF cells = test: XTT cytotoxicity assay; format: cell-based, human
Experimental: Cytotoxicity assays. HFF cells were seeded at 2×10^4, 4×10^3, or 10^3 cells per well into 96-well plates and, after a 3-hr incubation to allow cell attachment, were treated for 24, 72, or 120 hr, respectively, with various concentrations of each compound in duplicate. Cell viability was then determined with an XTT assay (Roche Molecular Biochemicals) according to the manufacturer's protocol by using a Victor plate reader (Wallac).
The cytotoxicity of the compounds was measured in an XTT assay. XTT is a compound that is converted to a product that can be measured […], but only by viable cells. This assay is as follows. HFF (human foreskin fibroblasts) cells were seeded at different concentrations into 96-well plates and treated with various concentrations (from 0 to 200 μM) of each compound in duplicate for 24, 72 or 120 hr. Cell viability was then determined with an XTT assay (Roche Molecular Biochemicals) according to the manufacturer's protocol by using a Victor plate reader (Wallac).

[2] = target: T3, GST-UL44ΔC290 / UL54-derived peptide interaction (Human cytomegalovirus, UniProt P16790); test: biochemical; format: binding, HCMV; conditions: 2.5 μM GST-UL44ΔC290 and 3 nM labeled peptide
T3 construct: GST-UL44ΔC290 fusion protein, which contains the N-terminal 290 residues of HCMV UL44; made in house; host or cells: E. coli BL21 (DE3)pLysS
T3 sequence (P16790 1-290, stated change not applied): as the sequence (P16790 1-290, stated change not applied) above
From the text: To identify small molecule inhibitors of the UL54-UL44 interaction, we developed an assay based on fluorescence polarization (FP) (Dandliker et al., 1981). In this assay, a peptide corresponding to the C-terminal 22 residues of UL54 (here named peptide 1, as in Loregian et al. (Loregian et al., 2003)), which was labeled with the fluorophore Oregon Green, is mixed with UL44ΔC290, a truncated protein which retains all known biochemical activities of full-length UL44 (Loregian et al., 2004b), fused to glutathione S-transferase (GST-UL44ΔC290).
We next investigated whether this assay could detect a known inhibitor of the UL54-UL44 interaction. To this end, a binding reaction of 2.5 μM GST-UL44ΔC290 and 3 nM labeled peptide was titrated with increasing concentrations of unlabeled peptide 1 (FIG. 4B).
FP assays. Unless otherwise indicated, […] of Oregon Green-labeled peptide 1 was added to 2.5 μM GST-UL44ΔC290 in 50 mM Tris-HCl (pH 7.5), 2 mM dithiothreitol, 0.5 mM EDTA, 150 mM NaCl, 4% glycerol and 100 μg/ml bovine serum albumin and kept on ice until the mix was distributed into black 384-well plates (Nunc) in a total volume of 40 μl per well. For high throughput screening, small molecules (5 mg/ml in DMSO) of the Maybridge, Bionet, Peakdale, ChemDiv, and Chembridge Microformat libraries were obtained from the ICCB, and 100 nl of each compound were transferred to individual wells using 384-pin arrays. All compounds were tested in duplicate. As controls, reaction mixtures containing either labeled peptide 1 only, or GST-UL44ΔC290 plus labeled peptide 1 (no compound), or GST-UL44ΔC290 plus labeled peptide 1 in the presence of 3 μM or 20 μM of unlabeled peptide 1, were included on each screening plate. After 15-min incubation at room temperature, FP values were determined by using an Analyst plate reader (LJL Biosystems) at the ICCB.
A fluorescence polarization (FP) assay was used to identify compounds that inhibit HCMV polymerase subunit interactions. Compounds from the Harvard Institute of Chemistry and Cell Biology (ICCB, Harvard Medical School) were screened as follows. 3 nM of a synthetic peptide corresponding to the C-terminal 22 residues of HMCV UL54 (termed peptide 1 in Loregian et al., J. Virol. 2003, 77:8336-8344) and N-terminally labeled with Oregon Green was added to 2.5 μM GST-UL44ΔC290 in 50 mM Tris-HCl (pH 7.5), 2 mM DTT, 0.5 mM EDTA, 150 mM NaCl, 4% Glycerol and 100 μg/ml bovine serum albumin and kept on ice until the mix was distributed into black 384-well plates (Nunc) in a total volume of 40 μl per well. […] After 5-min incubation at room temperature, the FP values were determined by using an Analyst plate reader (LJL Biosystems) at the ICCB. […]

[3] = IC50 for inhibition of FP (UL44-UL54 peptide interaction)
[4] = read-out: IC50 for inhibition of FP (UL44-UL54 peptide interaction)

CCOc1cc(C2C(C#N)=C(N)Oc3n[nH]c(-c4ccccc4)c32)cc([N+](=O)[O-])c1O (stereo not shown) [AL1]
effect on virus yield / HCMV replication (HCMV AD169): little or no effect
inhibition of long-chain DNA synthesis by UL54 and UL44 (UL54 plus GST-UL44ΔC290): little or no inhibition

CCOc1cc(C2C(C#N)=C(N)Oc3n[nH]c(-c4ccc(Cl)cc4)c32)cc([N+](=O)[O-])c1O (stereo not shown) [AL3]
effect on virus yield / HCMV replication (HCMV AD169): little or no effect
inhibition of the UL54-UL44 physical interaction [1]: did not significantly inhibit
inhibition of long-chain DNA synthesis by UL54 and UL44 (UL54 plus GST-UL44ΔC290): little or no inhibition

CCOc1cc(C2C(C#N)=C(N)Oc3n[nH]c(-c4cc(OC)c(OC)c(OC)c4)c32)cc([N+](=O)[O-])c1O (stereo not shown) [AL4]
effect on virus yield / HCMV replication (HCMV AD169; HFF cells): little or no effect

Cn1c(=O)cc2c3c(c(N4CCCCC4)ccc31)C(=O)c1ccccc1-2 [AL5]
effect on virus yield / HCMV replication (HCMV AD169): relatively low IC50s
inhibition of the UL54-UL44 physical interaction [1]: potent
IC50s in plaque reduction assay (HCMV strain AD169): relatively low IC50s
inhibition of long-chain DNA synthesis by UL54 and UL44 at one concentration (UL54 plus GST-UL44ΔC290): severely decreased formation of long DNA products
inhibition of long-chain DNA synthesis by UL54 and UL44 (UL54 plus GST-UL44ΔC290): relatively low IC50s
cytotoxic concentration relative to antiviral concentration (HFF cells): 7-500 fold
cytotoxicity (HFF cells): relatively high CC50's

COc1ccccc1C=C1N=C(c2ccc(OC)c(OC)c2)N(c2cccc(F)c2)C1=O [AL6]
cytotoxicity (HFF cells): significant cytotoxicity

Cc1ccc(-c2nc3nc(-c4ccc(Br)cc4)cn3nc2-c2ccc(C)cc2)cc1 [AL8]
inhibition of long-chain DNA synthesis by UL54 and UL44 (UL54 plus GST-UL44ΔC290): inactive
IC50 [2, 3]: < 50 µM and 5 to 30 µM

CCN1C=CC(=CC=Cc2ccc3ccccc3[n+]2CC)c2ccccc21 [AL10]
cytotoxicity (HFF cells): significant cytotoxicity
IC50 [2, 3]: < 50 µM and 5 to 30 µM

CCn1c2ccccc2c2cc3cc4ccccc4cc3cc21 [AL11]
cytotoxicity (HFF cells): significant cytotoxicity

O=c1c2cccc3cccc(c32)c2nc3ccccc3n12 [AL12]
effect on virus yield / HCMV replication (HCMV AD169; HFF cells): relatively low IC50s
inhibition of the UL54-UL44 physical interaction [1]: potent
IC50s in plaque reduction assay (HCMV strain AD169): relatively low IC50s
inhibition of long-chain DNA synthesis by UL54 and UL44 at one concentration (UL54 plus GST-UL44ΔC290): severely decreased formation of long DNA products
inhibition of long-chain DNA synthesis by UL54 and UL44 (UL54 plus GST-UL44ΔC290): relatively low IC50s
cytotoxic concentration relative to antiviral concentration (HFF cells): 7-500 fold
cytotoxicity (HFF cells): relatively high CC50's

CN(C)c1ccc2nc3c(=O)[nH]c(=O)[nH]c3nc2c1 [AL13]
cytotoxicity (HFF cells): significant cytotoxicity
IC50 [2, 4]: 50 µM

CNC(=S)NN=Cc1cc(Br)ccc1O [AL14]
cytotoxicity (HFF cells): significant cytotoxicity

O=C1CC(=O)c2c1cccc2[N+](=O)[O-] [AL15]
IC50 [2, 4]: 60 µM

O=C1c2cccc3c([N+](=O)[O-])ccc(c23)C(=O)N1Cc1cccnc1 [AL19]
cytotoxicity (HFF cells): significant cytotoxicity
